The test concerns the target PARP-1 (poly[ADP-ribose] polymerase 1) enzyme (Homo sapiens (Human), UniProt P09874). Put plainly: PARP-1 (poly[ADP-ribose] polymerase 1) enzyme inhibitory ability, Trevigen assay kit. Conditions: for inhibition at 0.001 µM: 1 nM compound, read-out: PAR P-1 Inhibitory ability at 1 nM; for IC50: PARP-1 enzyme activity. The class given is biochemical. Put shortly:
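After the 1 hour PARP reaction, wells were washed with PBS containing 0.1% triton X-100 and then PBS. Strep-HRP (50 μL) was bound for 1 hour, wells washed again, and 50 μL of TACS-sapphire substrate developed 15 minutes in the dark. Reactions were stopped with 50 μL of 5% phosphoric acid and absorbance read at 450 nm on a Victor3 reader.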

SMILES strings stand for the structures.

Chain of PARP-1 (poly[ADP-ribose] polymerase 1) enzyme (P09874 whole entry): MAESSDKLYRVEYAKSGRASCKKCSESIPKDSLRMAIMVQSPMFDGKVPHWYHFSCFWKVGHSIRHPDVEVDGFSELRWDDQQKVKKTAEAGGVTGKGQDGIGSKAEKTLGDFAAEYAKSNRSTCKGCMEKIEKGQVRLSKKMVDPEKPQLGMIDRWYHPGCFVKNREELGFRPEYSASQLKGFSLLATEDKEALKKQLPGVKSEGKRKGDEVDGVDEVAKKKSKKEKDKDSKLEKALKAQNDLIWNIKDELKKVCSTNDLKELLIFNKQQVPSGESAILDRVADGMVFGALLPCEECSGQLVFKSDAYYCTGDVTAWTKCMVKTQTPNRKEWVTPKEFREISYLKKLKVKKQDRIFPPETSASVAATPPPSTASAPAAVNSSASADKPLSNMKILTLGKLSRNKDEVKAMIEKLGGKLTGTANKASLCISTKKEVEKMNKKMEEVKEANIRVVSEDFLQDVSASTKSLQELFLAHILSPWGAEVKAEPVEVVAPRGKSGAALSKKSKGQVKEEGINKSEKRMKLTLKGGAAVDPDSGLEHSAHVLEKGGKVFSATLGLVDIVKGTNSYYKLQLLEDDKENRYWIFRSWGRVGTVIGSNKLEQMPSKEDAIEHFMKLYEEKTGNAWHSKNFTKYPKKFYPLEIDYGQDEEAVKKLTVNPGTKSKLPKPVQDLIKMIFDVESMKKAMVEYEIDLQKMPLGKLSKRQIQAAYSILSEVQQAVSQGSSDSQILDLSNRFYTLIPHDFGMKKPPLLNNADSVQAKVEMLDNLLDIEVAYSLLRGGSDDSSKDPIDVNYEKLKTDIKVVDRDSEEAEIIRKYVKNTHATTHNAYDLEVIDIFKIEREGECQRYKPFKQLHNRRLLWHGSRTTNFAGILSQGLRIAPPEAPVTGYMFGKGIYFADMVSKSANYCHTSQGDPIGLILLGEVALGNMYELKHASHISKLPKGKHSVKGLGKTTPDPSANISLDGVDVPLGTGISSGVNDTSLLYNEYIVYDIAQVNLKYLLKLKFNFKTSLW

Turning to `Cc1cc(F)cc2c(=O)[nH]c(CCC(=O)N3CCN(c4ccc(C#N)cn4)CC3)cc12` [Example 152, 6-(4-(3-(7-fluoro-5-methyl-1-oxo-1,2-dihydroisoquinolin-3-yl)propanoyl)piperazin-1-yl)nicotinonitrile], the inhibition at 0.001 µM was less than 50% and the IC50 is 0.85 nM. For `Cc1cc(F)cc2c(=O)[nH]c(CCC(=O)N3CCN(c4ccc(C#N)c(F)c4)CC3)cc12` [Example 153, 2-fluoro-4-(4-(3-(7-fluoro-5-methyl-1-oxo-1,2-dihydroisoquinolin-3-yl)propanoyl)piperazin-1-yl)benzonitrile], the inhibition at 0.001 µM was less than 50%. As for `Cc1cc(F)cc2c(=O)[nH]c(CCC(=O)N3CCN(c4ccc(C#N)cc4F)CC3)cc12` [Example 154, 3-fluoro-4-(4-(3-(7-fluoro-5-methyl-1-oxo-1,2-dihydroisoquinolin-3-yl)propanoyl)piperazin-1-yl)benzonitrile], the inhibition at 0.001 µM was less than 50%.

Consider `Cc1cc(F)cc2c(=O)[nH]c(CCC(=O)N3CCN(c4ccc(Cl)cc4)CC3)cc12` [Example 155, 3-(3-(4-(4-chlorophenyl)piperazin-1-yl)-3-oxopropyl)-7-fluoro-5-methylisoquinolin-1(2H)-one], for which the inhibition at 0.001 µM is less than 50%. On the same count and under the same terms, the value for `Cc1cc(F)cc2c(=O)[nH]c(CCC(=O)N3CCN(c4cc(C#N)ccc4F)CC3)cc12` [Example 156, 4-fluoro-3-(4-(3-(7-fluoro-5-methyl-1-oxo-1,2-dihydroisoquinolin-3-yl)propanoyl)piperazin-1-yl)benzonitrile] was less than 50%. For `Cc1cc(F)cc2c(=O)[nH]c(CCC(=O)N3CCN(c4cc(F)ccc4C#N)CC3)cc12` [Example 157, 4-fluoro-2-(4-(3-(7-fluoro-5-methyl-1-oxo-1,2-dihydroisoquinolin-3-yl)propanoyl)piperazin-1-yl)benzonitrile], the inhibition at 0.001 µM is less than 50%. The same measure, in the same setting: the value for `Cc1cc(F)cc2c(=O)[nH]c(CCC(=O)N3CCN(c4ccc(F)c(C#N)c4)CC3)cc12` [Example 158, 2-fluoro-5-(4-(3-(7-fluoro-5-methyl-1-oxo-1,2-dihydroisoquinolin-3-yl)propanoyl)piperazin-1-yl)benzonitrile] was less than 50%; that for `Cc1cc(F)cc2c(=O)[nH]c(CCC(=O)N3CCN(c4ccc(F)cc4C#N)CC3)cc12` [Example 159, 5-fluoro-2-(4-(3-(7-fluoro-5-methyl-1-oxo-1,2-dihydroisoquinolin-3-yl)propanoyl)piperazin-1-yl)benzonitrile] was less than 50%. Still for that read-out and setting: to `Cc1cc(F)cc2c(=O)[nH]c(CCC(=O)N3CC=C(c4cc(C#N)ccc4F)CC3)cc12` [Example 160, 4-fluoro-3-(1-(3-(7-fluoro-5-methyl-1-oxo-1,2-dihydroisoquinolin-3-yl)propanoyl)-1,2,3,6-tetrahydropyridin-4-yl)benzonitrile] belongs less than 50%; to `Cc1cc(F)cc2c(=O)[nH]c(CCC(=O)N3CC=C(c4ccc(F)cc4C#N)CC3)cc12` [Example 161, 5-fluoro-2-(1-(3-(7-fluoro-5-methyl-1-oxo-1,2-dihydroisoquinolin-3-yl)propanoyl)-1,2,3,6-tetrahydropyridin-4-yl)benzonitrile], less than 50%. For the compound `Cc1cc(F)cc2c(=O)[nH]c(CCC(=O)N3CC=C(c4ccc(F)cc4F)CC3)cc12` [Example 162, 3-(3-(4-(2,4-difluorophenyl)-3,6-dihydropyridin-1(2H)-yl)-3-oxopropyl)-7-fluoro-5-methylisoquinolin-1(2H)-one], the inhibition at 0.001 µM was less than 50%. Turning to `Cc1cc(F)cc2c(=O)[nH]c(CCC(=O)N3CC=C(c4cc(F)cc(C#N)c4)CC3)cc12` [Example 163, 3-fluoro-5-(1-(3-(7-fluoro-5-methyl-1-oxo-1,2-dihydroisoquinolin-3-yl)propanoyl)-1,2,3,6-tetrahydropyridin-4-yl)benzonitrile], the inhibition at 0.001 µM was less than 50%. `Cc1cc(F)cc2c(=O)[nH]c(CCC(=O)N3CC=C(c4cccc(F)c4)CC3)cc12` [Example 164, 7-fluoro-3-(3-(4-(3-fluorophenyl)-3,6-dihydropyridin-1(2H)-yl)-3-oxopropyl)-5-methylisoquinolin-1(2H)-one]: the inhibition at 0.001 µM is less than 50%.

Regarding `Cc1cc(F)cc2c(=O)[nH]c(CCC(=O)N3CCN(c4cc(F)cc(C#N)c4)CC3)cc12` [Example 166, 3-fluoro-5-(4-(3-(7-fluoro-5-methyl-1-oxo-1,2-dihydroisoquinolin-3-yl)propanoyl)piperazin-1-yl)benzonitrile], the inhibition at 0.001 µM was less than 50%. For the compound `Cc1cc(F)cc2c(=O)[nH]c(CCC(=O)N3CCN(c4cccc(F)c4)CC3)cc12` [Example 167, 7-fluoro-3-(3-(4-(3-fluorophenyl)piperazin-1-yl)-3-oxopropyl)-5-methylisoquinolin-1(2H)-one], the inhibition at 0.001 µM was less than 50%.

For `Cc1cc(F)cc2c(=O)[nH]c(CCC(=O)N3CC=C(c4ccnc(F)c4)CC3)cc12` [Example 168, 7-fluoro-3-(3-(2′-fluoro-3,6-dihydro-[4,4′-bipyridine]-1(2H)-yl)-3-oxopropyl)-5-methylisoquinolin-1(2H)-one], the inhibition at 0.001 µM is less than 50%. Still for that read-out and setting: the value for `O=C(CCc1cc2cccc(F)c2c(=O)[nH]1)N1CCN(C(=O)C2CCCCC2)CC1` [Example 170, 3-(3-(4-(cyclohexanecarbonyl)piperazin-1-yl)-3-oxopropyl)-8-fluoroisoquinolin-1(2H)-one] was less than 50%; that for `Cc1ccc(F)c2c(=O)[nH]c(CCC(=O)N3CCN(C(=O)C4CCCCC4)CC3)cc12` [Example 171, 3-(3-(4-(cyclohexanecarbonyl)piperazin-1-yl)-3-oxopropyl)-8-fluoro-5-methylisoquinolin-1(2H)-one] was less than 50%. Same read-out and setting: the value for `O=C(CCc1cc2ccc(F)cc2c(=O)[nH]1)N1CCN(C(=O)C2CCCCC2)CC1` [Example 172, 3-(3-(4-(cyclohexanecarbonyl)piperazin-1-yl)-3-oxopropyl)-7-fluoroisoquinolin-1(2H)-one] was less than 50%.

`Cc1cc(F)cc2c(=O)[nH]c(CCC(=O)N3CCN(C(=O)C4CCCCC4)CC3)cc12` [Example 173, 3-(3-(4-(cyclohexanecarbonyl)piperazin-1-yl)-3-oxopropyl)-7-fluoro-5-methylisoquinolin-1(2H)-one]: the inhibition at 0.001 µM was less than 50%. Regarding `O=C(CCc1cc2cccc(F)c2c(=O)[nH]1)N1CCN(C(=O)C2CCCC2)CC1` [Example 174, 3-(3-(4-(cyclopentanecarbonyl)piperazin-1-yl)-3-oxopropyl)-8-fluoroisoquinolin-1(2H)-one], the inhibition at 0.001 µM is less than 50%. The same measure, in the same setting: the value for `Cc1ccc(F)c2c(=O)[nH]c(CCC(=O)N3CCN(C(=O)C4CCCC4)CC3)cc12` [Example 175, 3-(3-(4-(cyclopentanecarbonyl)piperazin-1-yl)-3-oxopropyl)-8-fluoro-5-methylisoquinolin-1(2H)-one] was less than 50%; that for `O=C(CCc1cc2ccc(F)cc2c(=O)[nH]1)N1CCN(C(=O)C2CCCC2)CC1` [Example 176, 3-(3-(4-(cyclopentanecarbonyl)piperazin-1-yl)-3-oxopropyl)-7-fluoroisoquinolin-1(2H)-one] was less than 50%. The same measure, in the same setting: the value for `Cc1cc(F)cc2c(=O)[nH]c(CCC(=O)N3CCN(C(=O)C4CCCC4)CC3)cc12` [Example 177, 3-(3-(4-(cyclopentanecarbonyl)piperazin-1-yl)-3-oxopropyl)-7-fluoro-5-methylisoquinolin-1(2H)-one] was less than 50%; that for `O=C(CCc1cc2cccc(F)c2c(=O)[nH]1)N1CCN(C(=O)C2CCC2)CC1` [Example 178, 3-(3-(4-(cyclobutanecarbonyl)piperazin-1-yl)-3-oxopropyl)-8-fluoroisoquinolin-1(2H)-one] was less than 50%; that for `Cc1ccc(F)c2c(=O)[nH]c(CCC(=O)N3CCN(C(=O)C4CCC4)CC3)cc12` [Example 179, 3-(3-(4-(cyclobutanecarbonyl)piperazin-1-yl)-3-oxopropyl)-8-fluoro-5-methylisoquinolin-1(2H)-one] was less than 50%.

For `O=C(CCc1cc2ccc(F)cc2c(=O)[nH]1)N1CCN(C(=O)C2CCC2)CC1` [Example 180, 3-(3-(4-(cyclobutanecarbonyl)piperazin-1-yl)-3-oxopropyl)-7-fluoroisoquinolin-1(2H)-one], the inhibition at 0.001 µM was less than 50%. `Cc1cc(F)cc2c(=O)[nH]c(CCC(=O)N3CCN(C(=O)C4CCC4)CC3)cc12` [Example 181, 3-(3-(4-(cyclobutanecarbonyl)piperazin-1-yl)-3-oxopropyl)-7-fluoro-5-methylisoquinolin-1(2H)-one]: the inhibition at 0.001 µM was less than 50%. For the compound `O=C(CCc1cc2cccc(F)c2c(=O)[nH]1)N1CCN(C(=O)C2CC2)CC1` [Example 182, 3-(3-(4-(cyclopropanecarbonyl)piperazin-1-yl)-3-oxopropyl)-8-fluoroisoquinolin-1(2H)-one], the inhibition at 0.001 µM was less than 50%. As for `Cc1ccc(F)c2c(=O)[nH]c(CCC(=O)N3CCN(C(=O)C4CC4)CC3)cc12` [Example 183, 3-(3-(4-(cyclopropanecarbonyl)piperazin-1-yl)-3-oxopropyl)-8-fluoro-5-methylisoquinolin-1(2H)-one], the inhibition at 0.001 µM is less than 50% and half-maximal inhibition (IC50) required 14.7 nM. In the case of `O=C(CCc1cc2ccc(F)cc2c(=O)[nH]1)N1CCN(C(=O)C2CC2)CC1` [Example 184, 3-(3-(4-(cyclopropanecarbonyl)piperazin-1-yl)-3-oxopropyl)-7-fluoroisoquinolin-1(2H)-one], the inhibition at 0.001 µM is less than 50%. As for `Cc1cc(F)cc2c(=O)[nH]c(CCC(=O)N3CCN(C(=O)C4CC4)CC3)cc12` [Example 185, 3-(3-(4-(cyclopropanecarbonyl)piperazin-1-yl)-3-oxopropyl)-7-fluoro-5-methylisoquinolin-1(2H)-one], the inhibition at 0.001 µM is less than 50%.
